Reference: article PMC10927578, “Structural basis for CFTR inhibition by CFTRinh-172” (Proceedings of the National Academy of Sciences of the …, 2024)

What was measured:
CFTR R347A = system: CFTR R347A; parameters: method as in PMID 18366345; conditions: R347A vs WT CFTR; cited from earlier work
cyst growth = system: cyst growth; parameters: method as in PMID 18385427; conditions: animal models of polycystic kidney disease; cited from earlier work
CFTR (E1371Q) [1] = biological target: T1, CFTR (E1371Q) (Homo sapiens, UniProt P13569, E1371Q); experiment: Inside-out excised patch macroscopic current recording, CFTR (E1371Q); assay type: biochemical; conditions: 10 µM CFTRinh-172; inside-out patches; PKA-phosphorylated, 3 mM ATP
T1 construct: expressed in transfected cells; host or cells: CHO-K1 (ATCC CCL-61)
T1 sequence (P13569 whole entry E1371Q): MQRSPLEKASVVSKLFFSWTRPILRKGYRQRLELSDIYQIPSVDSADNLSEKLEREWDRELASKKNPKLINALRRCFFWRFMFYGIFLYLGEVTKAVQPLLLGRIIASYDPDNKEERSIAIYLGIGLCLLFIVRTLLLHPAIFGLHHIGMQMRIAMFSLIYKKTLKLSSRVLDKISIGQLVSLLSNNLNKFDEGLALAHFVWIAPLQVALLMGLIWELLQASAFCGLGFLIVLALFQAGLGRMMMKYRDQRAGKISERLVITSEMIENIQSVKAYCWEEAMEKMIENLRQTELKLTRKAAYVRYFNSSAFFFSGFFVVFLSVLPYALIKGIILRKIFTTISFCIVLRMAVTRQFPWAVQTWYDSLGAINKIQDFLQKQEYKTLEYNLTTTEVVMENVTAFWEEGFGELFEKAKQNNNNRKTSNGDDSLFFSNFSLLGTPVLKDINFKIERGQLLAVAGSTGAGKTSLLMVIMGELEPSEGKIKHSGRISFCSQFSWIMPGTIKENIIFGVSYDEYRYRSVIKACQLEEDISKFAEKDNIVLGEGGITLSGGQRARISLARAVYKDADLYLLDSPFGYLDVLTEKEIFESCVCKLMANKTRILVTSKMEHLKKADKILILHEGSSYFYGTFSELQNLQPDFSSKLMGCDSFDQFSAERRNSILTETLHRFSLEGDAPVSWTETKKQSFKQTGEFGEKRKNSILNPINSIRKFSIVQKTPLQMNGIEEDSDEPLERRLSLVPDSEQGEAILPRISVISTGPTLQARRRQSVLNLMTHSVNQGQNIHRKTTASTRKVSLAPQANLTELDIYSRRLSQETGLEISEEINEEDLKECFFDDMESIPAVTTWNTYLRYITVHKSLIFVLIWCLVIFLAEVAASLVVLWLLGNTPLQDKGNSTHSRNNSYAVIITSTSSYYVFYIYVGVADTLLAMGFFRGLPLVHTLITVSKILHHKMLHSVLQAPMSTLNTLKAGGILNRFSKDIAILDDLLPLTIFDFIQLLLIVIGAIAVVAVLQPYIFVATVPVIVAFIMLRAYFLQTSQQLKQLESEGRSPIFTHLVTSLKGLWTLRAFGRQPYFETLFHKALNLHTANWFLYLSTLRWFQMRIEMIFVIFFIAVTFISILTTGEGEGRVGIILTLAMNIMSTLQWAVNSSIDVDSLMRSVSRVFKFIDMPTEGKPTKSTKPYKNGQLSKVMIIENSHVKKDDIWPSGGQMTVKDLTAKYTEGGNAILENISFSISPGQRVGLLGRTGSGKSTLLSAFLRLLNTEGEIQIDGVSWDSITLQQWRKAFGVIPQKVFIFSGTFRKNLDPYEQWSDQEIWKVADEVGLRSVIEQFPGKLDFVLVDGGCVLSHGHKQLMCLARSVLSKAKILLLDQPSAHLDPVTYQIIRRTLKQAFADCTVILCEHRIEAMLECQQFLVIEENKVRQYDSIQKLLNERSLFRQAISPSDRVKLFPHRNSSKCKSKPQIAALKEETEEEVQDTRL

CFTR (E1371Q) [2] = biological target: T2, CFTR (E1371Q) (Homo sapiens, UniProt P13569, C128S/C1344S/C1355S/C1395S/C1400S/C1410S/C1458S/C225S/C276S/C343S/C491S/C592M/C647S/C76L/C832S/C866S/E1371Q/S1435C/T388C); experiment: smFRET imaging of NBD dimerization, CFTR (E1371Q); assay type: biochemical; conditions: with CFTRinh-172
T2 construct: GFP (PreScission Protease-cleavable) (C); made in house; host or cells: HEK293S GnTI- suspension cells infected with BacMam baculovirus
T2 sequence (P13569 1-1480 with the stated changes): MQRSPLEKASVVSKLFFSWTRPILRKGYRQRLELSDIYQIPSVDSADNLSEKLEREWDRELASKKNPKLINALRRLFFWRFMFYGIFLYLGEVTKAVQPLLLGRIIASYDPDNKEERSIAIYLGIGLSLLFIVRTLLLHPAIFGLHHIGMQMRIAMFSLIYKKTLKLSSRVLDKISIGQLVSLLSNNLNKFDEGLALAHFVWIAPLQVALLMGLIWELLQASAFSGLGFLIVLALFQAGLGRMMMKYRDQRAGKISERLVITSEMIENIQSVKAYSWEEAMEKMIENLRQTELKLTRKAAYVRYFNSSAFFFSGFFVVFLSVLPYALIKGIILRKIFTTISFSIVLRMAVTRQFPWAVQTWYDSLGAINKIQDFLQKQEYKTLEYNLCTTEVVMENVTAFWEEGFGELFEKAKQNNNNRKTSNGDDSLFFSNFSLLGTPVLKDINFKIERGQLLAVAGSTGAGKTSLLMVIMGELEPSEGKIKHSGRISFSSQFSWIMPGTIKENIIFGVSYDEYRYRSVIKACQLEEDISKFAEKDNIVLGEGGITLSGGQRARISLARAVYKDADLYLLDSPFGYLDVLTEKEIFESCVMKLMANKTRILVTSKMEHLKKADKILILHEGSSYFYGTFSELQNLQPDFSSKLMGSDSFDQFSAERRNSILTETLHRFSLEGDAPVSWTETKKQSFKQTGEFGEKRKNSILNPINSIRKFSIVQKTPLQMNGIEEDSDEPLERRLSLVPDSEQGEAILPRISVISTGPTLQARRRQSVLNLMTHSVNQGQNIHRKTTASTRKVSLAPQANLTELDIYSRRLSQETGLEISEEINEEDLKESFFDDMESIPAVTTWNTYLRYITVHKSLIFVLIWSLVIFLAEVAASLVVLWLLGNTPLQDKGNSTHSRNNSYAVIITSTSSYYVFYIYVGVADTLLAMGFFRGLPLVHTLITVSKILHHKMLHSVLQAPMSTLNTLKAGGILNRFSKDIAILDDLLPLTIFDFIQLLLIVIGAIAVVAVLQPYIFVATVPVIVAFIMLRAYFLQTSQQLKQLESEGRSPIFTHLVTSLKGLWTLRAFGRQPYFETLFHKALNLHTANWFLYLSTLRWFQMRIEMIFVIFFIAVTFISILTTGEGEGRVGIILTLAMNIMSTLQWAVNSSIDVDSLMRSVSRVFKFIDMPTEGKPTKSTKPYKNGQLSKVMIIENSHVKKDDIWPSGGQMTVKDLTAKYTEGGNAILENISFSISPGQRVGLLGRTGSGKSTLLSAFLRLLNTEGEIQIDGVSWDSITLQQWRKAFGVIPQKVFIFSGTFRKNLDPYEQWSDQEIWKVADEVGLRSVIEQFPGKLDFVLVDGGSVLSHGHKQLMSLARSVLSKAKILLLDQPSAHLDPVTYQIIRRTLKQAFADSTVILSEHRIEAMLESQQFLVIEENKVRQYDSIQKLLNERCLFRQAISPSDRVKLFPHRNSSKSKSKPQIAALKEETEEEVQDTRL

K95A CFTR = biological target: T3, K95A CFTR (Homo sapiens, UniProt P13569, K95A); experiment: Inside-out excised patch titration, K95A CFTR; assay type: biochemical; conditions: inside-out patches, 3 mM ATP, Hill coefficient fixed to 1
T3 construct: expressed in transfected cells; host or cells: CHO-K1 (ATCC CCL-61)
T3 sequence (P13569 whole entry K95A): as the sequence (P13569 whole entry E1371Q) above, with K95A, Q1371E counted along it

T1142I CFTR = biological target: T4, T1142I CFTR (Homo sapiens, UniProt P13569, T1142I); experiment: Inside-out excised patch titration, T1142I CFTR; assay type: biochemical; conditions: inside-out patches, 3 mM ATP, Hill coefficient fixed to 1
T4 construct: expressed in transfected cells; host or cells: CHO-K1 (ATCC CCL-61)
T4 sequence (P13569 whole entry T1142I): as the sequence (P13569 whole entry E1371Q) above, with T1142I, Q1371E counted along it

WT CFTR [3] = biological target: T5, WT CFTR (Homo sapiens, UniProt P13569, C128S/C1344S/C1355S/C1395S/C1400S/C1410S/C1458S/C225S/C276S/C343S/C491S/C592M/C647S/C76L/C832S/C866S/S1435C/T388C); experiment: smFRET imaging of NBD dimerization, WT CFTR; assay type: biochemical; conditions: 10 µM CFTRinh-172, 3 mM ATP
T5 construct: GFP (PreScission Protease-cleavable) (C); made in house; host or cells: HEK293S GnTI- suspension cells infected with BacMam baculovirus
T5 sequence (P13569 1-1480 with the stated changes): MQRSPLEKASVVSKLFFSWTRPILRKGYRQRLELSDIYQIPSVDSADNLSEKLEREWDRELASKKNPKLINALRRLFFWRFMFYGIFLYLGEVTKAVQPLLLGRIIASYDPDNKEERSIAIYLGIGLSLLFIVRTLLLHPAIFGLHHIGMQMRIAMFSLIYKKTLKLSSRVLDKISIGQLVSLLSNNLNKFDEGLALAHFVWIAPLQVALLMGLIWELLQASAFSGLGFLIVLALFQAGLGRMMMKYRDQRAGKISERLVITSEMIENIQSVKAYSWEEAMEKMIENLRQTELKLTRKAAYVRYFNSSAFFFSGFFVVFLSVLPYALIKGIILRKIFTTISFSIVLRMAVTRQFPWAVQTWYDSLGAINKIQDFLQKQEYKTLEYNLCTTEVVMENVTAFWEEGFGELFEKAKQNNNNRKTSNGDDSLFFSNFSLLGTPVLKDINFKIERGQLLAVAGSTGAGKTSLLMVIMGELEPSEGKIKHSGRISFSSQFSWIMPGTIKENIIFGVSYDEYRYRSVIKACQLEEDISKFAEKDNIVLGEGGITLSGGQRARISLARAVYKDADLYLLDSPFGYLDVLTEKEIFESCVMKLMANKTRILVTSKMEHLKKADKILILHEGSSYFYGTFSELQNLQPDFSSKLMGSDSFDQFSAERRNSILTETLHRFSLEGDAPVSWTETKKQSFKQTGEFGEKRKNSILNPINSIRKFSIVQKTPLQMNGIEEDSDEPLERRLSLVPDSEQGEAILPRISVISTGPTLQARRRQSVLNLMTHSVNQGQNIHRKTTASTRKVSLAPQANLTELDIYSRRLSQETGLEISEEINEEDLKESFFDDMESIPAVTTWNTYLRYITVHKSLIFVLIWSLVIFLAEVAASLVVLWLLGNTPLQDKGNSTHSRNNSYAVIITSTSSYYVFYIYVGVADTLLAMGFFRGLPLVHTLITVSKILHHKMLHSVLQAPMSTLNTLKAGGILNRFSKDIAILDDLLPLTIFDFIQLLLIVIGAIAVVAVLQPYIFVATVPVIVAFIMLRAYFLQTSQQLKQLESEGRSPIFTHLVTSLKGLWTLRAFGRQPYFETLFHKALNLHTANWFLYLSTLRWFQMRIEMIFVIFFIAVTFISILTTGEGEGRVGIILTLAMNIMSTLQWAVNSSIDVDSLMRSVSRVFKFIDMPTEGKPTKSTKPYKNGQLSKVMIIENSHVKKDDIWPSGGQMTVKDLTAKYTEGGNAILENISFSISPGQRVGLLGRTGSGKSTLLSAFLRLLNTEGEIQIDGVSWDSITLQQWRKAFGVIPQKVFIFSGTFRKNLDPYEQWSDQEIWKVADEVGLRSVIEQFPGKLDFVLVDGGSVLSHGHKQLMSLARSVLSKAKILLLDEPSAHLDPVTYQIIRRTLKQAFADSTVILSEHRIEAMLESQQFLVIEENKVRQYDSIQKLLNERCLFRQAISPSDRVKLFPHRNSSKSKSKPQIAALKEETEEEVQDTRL

CFTR (E1371Q) [4] = biological target: T1, CFTR (E1371Q); experiment: Single-channel recording in synthetic planar lipid bilayer, CFTR (E1371Q); assay type: biochemical; conditions: 10 µM CFTRinh-172, 3 mM ATP, -150 mV, mean and SE, 0.79 ± 0.03 without inhibitor
S1141A CFTR = biological target: T6, S1141A CFTR (Homo sapiens, UniProt P13569, S1141A); experiment: Inside-out excised patch titration, S1141A CFTR; assay type: biochemical; conditions: inside-out patches, 3 mM ATP
T6 construct: expressed in transfected cells; host or cells: CHO-K1 (ATCC CCL-61)
T6 sequence (P13569 whole entry S1141A): as the sequence (P13569 whole entry E1371Q) above, with S1141A, Q1371E counted along it

CFTR R347D = system: CFTR R347D; parameters: method as in PMID 18366345; conditions: cited from earlier work
[5] = biological target: T7, PKA-phosphorylated WT CFTR (Homo sapiens, UniProt P13569); experiment: Steady-state ATP hydrolysis, NADH-coupled assay; assay type: biochemical; conditions: 10 µM CFTRinh-172
T7 construct: GFP (PreScission Protease-cleavable) (C, cleaved yes); made in house; host or cells: HEK293S GnTI- suspension cells infected with BacMam baculovirus
T7 sequence (P13569 whole entry): as the sequence (P13569 whole entry E1371Q) above, with Q1371E counted along it

WT CFTR [6] = biological target: T8, WT CFTR (Homo sapiens, UniProt P13569); experiment: Single-channel recording in synthetic planar lipid bilayer, WT CFTR; assay type: biochemical
T8 construct: GFP (PreScission Protease-cleavable) (C, cleaved yes); made in house; host or cells: HEK293S GnTI- suspension cells infected with BacMam baculovirus
T8 sequence (P13569 whole entry): as the sequence (P13569 whole entry E1371Q) above, with Q1371E counted along it

WT CFTR [7] = biological target: T8, WT CFTR; experiment: Inside-out excised patch macroscopic current recording, WT CFTR; assay type: biochemical; conditions: inside-out patches, 3 mM ATP
[8] = system: cholera toxin-induced intestinal fluid secretion; conditions: in vivo; cited from earlier work
CFTR = system: CFTR; parameters: method as in PMID 36949202; conditions: cited from earlier work; for effect on channel activity: by increasing pore opening while the NBDs are dimerized

Question: Which “decrease in potency on substitution of R347 with alanine” value (CFTR R347A) does the source give for `O=C(O)c1ccc(/C=C2\SC(=S)N(c3cccc(C(F)(F)F)c3)C2=O)cc1` [CFTRinh-172] here?
Answer: over 30 fold

Question: And the cyst growth (cyst growth)?
Answer: suppress cyst growth

Question: And the “inhibition of macroscopic current relative to WT CFTR” value (CFTR (E1371Q) [1])?
Answer: comparable level of inhibition

Question: What about the “effect on conformational dynamics” value (CFTR (E1371Q) [2]) of the same compound?
Answer: did not affect

Question: What about the IC50 (K95A CFTR) of the same compound?
Answer: 3.5 ± 0.9 µM

Question: And the IC50 (T1142I CFTR)?
Answer: 5.3 ± 3.1 µM

Question: What about the “effect on dwell time of the NBD-dimerized state” value (WT CFTR [3]) of the same compound?
Answer: did not significantly affect

Question: What about the “effect on probability of NBD dimerization” value (WT CFTR [3]) of the same compound?
Answer: did not significantly affect

Question: What about the open probability (CFTR (E1371Q) [4]) of the same compound?
Answer: 0.0011 ± 0.0004

Question: And the “effect of S1141A substitution on inhibitory potency” value (S1141A CFTR)?
Answer: no effect on inhibitory potency

Question: What about the “effect of R347D substitution on inhibition” value (CFTR R347D) of the same compound?
Answer: nearly eliminated its inhibitory effect

Question: What about the “change of Michaelis-Menten constant (Km) for ATP” value [5] of the same compound?
Answer: not significantly changed

Question: And the “saturating ATP turnover (kcat)” value ([5]; 22.0 ± 2.2 without inhibitor)?
Answer: 5.2 ± 1.0 ATP/protein/min

Question: What about the open probability (WT CFTR [6]; 10 µM CFTRinh-172, 3 mM ATP, -150 mV, mean and SE, 0.21 ± 0.05 without inhibitor) of the same compound?
Answer: 0.007 ± 0.003

Question: What about the “mean open dwell time” value (WT CFTR [6]; with CFTRinh-172, 3 mM ATP, 487 ± 92 ms without inhibitor) of the same compound?
Answer: 109 ± 14 ms

Question: What about the “reduction of macroscopic current” value (WT CFTR [7]; 10 µM CFTRinh-172, PKA-phosphorylated) of the same compound?
Answer: 96%

Question: What about the IC50 (WT CFTR [7]; WT CFTR, Hill coefficient fixed to 1) of the same compound?
Answer: 0.6 ± 0.1 µM

Question: What about the “cholera toxin-induced intestinal fluid secretion” value [8] of the same compound?
Answer: block cholera toxin-induced intestinal fluid secretion

Question: Which results are given for `CC1(C)Cc2c(sc(NC(=O)c3ccn[nH]3)c2C(N)=O)C(C)(C)O1` [GLPG1837, N-(3-Carbamoyl-5,5,7,7-tetramethyl-5,7-dihydro-4H-thieno[2,3-c]pyran-2-yl)-lH-pyrazole-5-carboxamide]?
Answer: effect on channel activity (CFTR): enhance channel activity; effect on ATP turnover (CFTR): increase ATP turnover

Question: What does the source list for `CC(C)(C)c1cc(C(C)(C)C)c(NC(=O)c2c[nH]c3ccccc3c2=O)cc1O` [Ivacaftor, N-(2,4-Di-tert-butyl-5-hydroxyphenyl)-4-oxo-1,4-dihydroquinoline-3-carboxamide]?
Answer: effect on channel activity (CFTR): enhance channel activity; effect on ATP turnover (CFTR): increase ATP turnover
